Measurements published in paper PMC11672551, “Cyclic Ruthenium-Peptide Prodrugs Penetrate the Blood–Brain Barrier and Attack Glioblastoma upon Light Activation in Orthotopic Zebrafish Tumor Models” (ACS Central Science, 2024).

What was measured:
[1] = system: U87MG-wt and U87MG-kd (ITGAV, integrin αV knockdown) cells; assay: Cellular ruthenium uptake by ICP-MS in wild type vs ITGAV knockdown cells; format: cell-based, human; conditions: normoxia, 10 μM, 3 h, 2D monolayers, n = 3
Method: Figure 2 Integrin targeting by Ru-p(HH), Ru-p(MH), and Ru-p(MM)in vitro. (a, b) Expression of integrin (a) αVβ3 and (b) αVβ5 in MCF7, PC-3, A549, MDA-MB-231, U87MG, and U87MG-kd cell lines under normoxic (21% O2) or hypoxic (1% O2) conditions. Note a: ITGAV was knockdown; see Methods. Bars represent the fluorescence intensity of the cells incubated with either anti-integrin αVβ3 or αVβ5 monoclonal antibodies followed by a secondary antibody conjugated to Alexa-Fluor 488. Error: standard deviation (SD), n = 2. (c) Ruthenium accumulation (μg Ru/million cells) of wild type U87MG (U87MG-wt) and ITGAV knockdown U87MG (U87MG-kd) cell lines after treatment with medium (control), Ru-p(HH), Ru-p(MH), Ru-p(MM), or [Ru(Ph2phen)2(bpy)]Cl2 (normoxia, 10 μM, 3 h). Error: standard deviation (SD), n = 3. Two-way ANOVA was used to determine the significance of the comparisons of data (*P < 0.05, **P < 0.01, ***P < 0.001, ****P < 0.0001).
In order to check whether the integrins […] were responsible for the cellular uptake of these conjugates, an ITGAV (integrin αV) knockdown U87MG cell line (U87MG-kd, Figure 2a,b) was prepared, and the cellular ruthenium uptake was measured using ICP-MS in wild type and knockdown U87MG 2D cell monolayers (Figure 2c). […]

[2] = system: U87MG tumor cells in zebrafish hindbrain; assay: Tumor targeting in zebrafish embryos, colocalization of drug emission with GFP-U87MG cells in the hindbrain; format: in vivo; conditions: 2 pmol, line-scan profiles of high-resolution images (Figure S35)
Method: In a second step, the targeting of GBM cells by Ru-p(HH) was tested by detecting the colocalization of the red-emissive drug (excitation: 488 nm; emission detector window: 630–774 nm) with GFP-U87MG cells (excitation: 488 nm; emission: 485–575 nm). To clearly see the distribution of the drug and of the cancer cells in zebrafish, we used Tg(kdrl:mTurquoise)^hu7185Tg embryos. In this transgenic fish line, the blood vessels of the embryos are labeled by the mTurquoise fluorescent protein, which can be excited at 405 nm and emits at 464–480 nm. As shown in Figure 5a and Figure S33a, when only tumor cells were injected into the hindbrain of the zebrafish embryo, GFP was the only signal detected. […] By calculating the distribution and intensity of Ru-p(HH) emission in the region of U87MG cells in the brain, the PCC and MOC values for the top-down view of the hindbrain were determined to be 0.49 and 0.79, respectively, while those in the side images were 0.77 and 0.66 (Figure 5b, Figure S33b).
Figure 5 Targeting a U87MG brain tumor with Ru-p(HH)in vivo. […] The Z-axis is the cell fluorescence intensity (green) and the drug fluorescence intensity (purple). […] Both PCC and MOC are calculated and are shown in the graph. […]

Q: With [Ru(Ph2phen)2(bpy)]Cl2 as the substance, how does the “cellular ruthenium uptake in U87MG-kd compared to wild type U87MG” value [1] read?
A: Its value is “not lowered”.

Q: And the “MOC between prodrug and tumor, comparison with RGD-free control” value [2]?
A: The value was 0.35.

Q: And the “PCC between prodrug and tumor, comparison with RGD-free control” value [2]?
A: The value was −0.2.
